# Results reported in ChEMBL document CHEMBL1201862, “PubChem BioAssay data set” (2004).
# Activity calls are given as the source filed them.
# What was measured:
# HEK293 [1] = experiment: inhibition of NOD1-driven NF-kB reporter – cell-based, luminescence, uHTS, primary screen (AID 1578); assay type: functional; settings: Homo sapiens
# HEK293 [2] = experiment: cells; assay type: functional, cell-based; settings: Homo sapiens
# HEK293 [3] = experiment: cells; assay type: functional, cell-based; settings: Homo sapiens; remark: listed apart in the source
# HEK293 [4] = experiment: NOD2 signaling inhibitors in MDP-stimulated cells, cell-based, uHTS, luminescence (AID 2001); assay type: functional; settings: Homo sapiens
# [5] = target: Induced myeloid leukemia cell differentiation protein Mcl-1 (Homo sapiens, UniProt Q07820); assay type: functional
# Cysteine protease ATG4B = target: T1, Cysteine protease ATG4B (Homo sapiens, UniProt Q9Y4P1); assay type: functional;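 note: Fluorescence-based dose-response confirmation assay measuring inhibition of ATG4B activity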
# T1 sequence (Q9Y4P1 whole entry): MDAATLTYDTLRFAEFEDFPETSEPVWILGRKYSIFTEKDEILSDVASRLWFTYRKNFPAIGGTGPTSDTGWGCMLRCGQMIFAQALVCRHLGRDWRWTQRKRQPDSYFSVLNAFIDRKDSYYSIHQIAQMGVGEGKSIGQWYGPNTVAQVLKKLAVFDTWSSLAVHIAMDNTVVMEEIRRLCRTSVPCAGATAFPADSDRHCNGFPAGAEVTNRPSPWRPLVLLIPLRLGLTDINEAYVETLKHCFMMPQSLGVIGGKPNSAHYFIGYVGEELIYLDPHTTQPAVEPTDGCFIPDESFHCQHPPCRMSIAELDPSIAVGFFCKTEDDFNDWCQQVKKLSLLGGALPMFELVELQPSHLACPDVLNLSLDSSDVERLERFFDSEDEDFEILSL
# Phospholipase A2 = Phospholipase A2 (Homo sapiens, UniProt P04054); assay type: functional;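 note: confirmatory dose-response counterscreen on phospholipase A2, testing hits that came from an ultra-high-throughput screen for ATG4B inhibitors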
# Genome polyprotein = Genome polyprotein (dengue virus type 2, UniProt P29990); experiment: flavivirus cap methylation enzyme inhibition – biochemical, confirmation dose response, primary screen (AID 588689); assay type: functional
# [6] = target: Peroxisome proliferator-activated receptor gamma/Nuclear receptor coactivator 1 (Homo sapiens, UniProt P37231); experiment: TR-FRET dose response biochemical High Throughput Screening assay for agonists of the steroid receptor coactivator 1 (SRC-1) recruitment by the peroxisome proliferator-activated receptor gamma (PPAR gamma): non-selective agonists. [Related pubchem assays (depositor defined):AID1300, AID1808, AID504735, AID631]; assay type: protein assay
# [7] = target: Peroxisome proliferator-activated receptor gamma/Nuclear receptor coactivator 3 (Homo sapiens, UniProt P37231); experiment: TR-FRET dose response biochemical High Throughput Screening assay for agonists of the steroid receptor coactivator 3 (SRC-3) recruitment by the peroxisome proliferator-activated receptor gamma (PPAR gamma): non-selective agonists. [Related pubchem assays: 1301 (Confirmation screen.), 1048 (Primary screen.)]; assay type: functional
# [8] = target: Peroxisome proliferator-activated receptor gamma/Nuclear receptor coactivator 2 (Homo sapiens, UniProt P37231); experiment: TR-FRET dose response biochemical High Throughput Screening assay for agonists of the steroid receptor coactivator 2 (SRC-2) recruitment by the peroxisome proliferator-activated receptor gamma (PPAR gamma): non-selective agonists. [Related pubchem assays: 1297, 1032 ]; assay type: functional
# [9] = target: Dual specificity tyrosine-phosphorylation-regulated kinase 1A (Rattus norvegicus, UniProt Q63470); assay type: biochemical, Homo sapiens
# [10] = target: T2, Polyadenylate-binding protein 1 (Homo sapiens, UniProt P11940); experiment: MLLE binding blockers, Cy5 peptide tracer – biochemical, fluorescence polarization, Cy5-PAM2 peptide, secondary, miRNA deadenylation inhibitor project, dose response (AID 602260); assay type: functional; settings: read-out: IC50_Mean
# [11] = target: T2, Polyadenylate-binding protein 1; experiment: MLLE domain peptide-binding blockers, IC50 – biochemical, fluorescence polarization, FITC-PAM2 peptide, dose response (AID 602259); assay type: functional; settings: read-out: IC50_Mean
# [12] = target: T3, Corticotropin-releasing factor receptor 2/Corticotropin-releasing factor-binding protein (Homo sapiens, UniProt P24387+Q13324); experiment: Dose Response confirmation of uHTS hits for small molecule antagonists of the CRF-binding protein and CRF-R2 receptor complex.; assay type: functional; settings: read-out: IC50_Mean
# T3 sequence (Q13324 whole entry): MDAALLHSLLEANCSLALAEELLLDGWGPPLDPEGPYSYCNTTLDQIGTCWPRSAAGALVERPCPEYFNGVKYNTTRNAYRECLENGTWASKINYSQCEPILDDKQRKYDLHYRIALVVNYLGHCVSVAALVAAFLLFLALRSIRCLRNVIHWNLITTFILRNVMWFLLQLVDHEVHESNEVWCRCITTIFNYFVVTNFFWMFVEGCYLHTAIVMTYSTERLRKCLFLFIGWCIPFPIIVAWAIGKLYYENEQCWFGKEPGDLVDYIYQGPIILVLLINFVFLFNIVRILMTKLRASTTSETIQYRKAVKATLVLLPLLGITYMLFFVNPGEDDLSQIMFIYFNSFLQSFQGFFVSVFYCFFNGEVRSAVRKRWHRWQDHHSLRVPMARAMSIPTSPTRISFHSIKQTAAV
# T3 sequence (P24387 whole entry): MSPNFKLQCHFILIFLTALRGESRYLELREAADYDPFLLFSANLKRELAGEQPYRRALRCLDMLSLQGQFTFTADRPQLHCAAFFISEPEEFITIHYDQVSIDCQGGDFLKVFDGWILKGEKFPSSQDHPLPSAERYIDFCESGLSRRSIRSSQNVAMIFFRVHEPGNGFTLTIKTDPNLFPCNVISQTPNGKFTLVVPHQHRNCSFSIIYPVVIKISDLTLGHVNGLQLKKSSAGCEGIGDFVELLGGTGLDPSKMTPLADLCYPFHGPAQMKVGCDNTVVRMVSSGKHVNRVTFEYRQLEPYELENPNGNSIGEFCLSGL
# [13] = target: T3, Corticotropin-releasing factor receptor 2/Corticotropin-releasing factor-binding protein; experiment: activators of CRF receptor 2 with binding protein – uHTS hits, confirmation (AID 602473); assay type: functional; settings: read-out: EC50_Mean
# [14] = blockers of CRF-binding protein–CRF-R2 complex – cell-based, uHTS hits, 384-well, dose response (AID 651639); assay type: functional, Homo sapiens; settings: read-out: IC50_Mean
# Cytochrome P450 2C9 = Cytochrome P450 2C9 (Homo sapiens, UniProt P11712)
# Escherichia coli = experiment: microbe, parasite or virus in culture
# Cytochrome P450 3A4 = Cytochrome P450 3A4 (Homo sapiens, UniProt P08684);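 note: CYP3A4 tested as one member of a cytochrome P450 panel screen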
# [15] = target: T4, RNA-binding protein pos-1 (Caenorhabditis elegans, UniProt G5EF15); experiment: disruptors of C. elegans POS-1 RNA interaction – biochemical, fluorescence polarization, dose response (AID 1964);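 note: purified POS-1 fused to maltose binding protein made in E. coli; potency of compounds blocking POS-1 binding to fluorescent RNA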
# T4 sequence (G5EF15 whole entry): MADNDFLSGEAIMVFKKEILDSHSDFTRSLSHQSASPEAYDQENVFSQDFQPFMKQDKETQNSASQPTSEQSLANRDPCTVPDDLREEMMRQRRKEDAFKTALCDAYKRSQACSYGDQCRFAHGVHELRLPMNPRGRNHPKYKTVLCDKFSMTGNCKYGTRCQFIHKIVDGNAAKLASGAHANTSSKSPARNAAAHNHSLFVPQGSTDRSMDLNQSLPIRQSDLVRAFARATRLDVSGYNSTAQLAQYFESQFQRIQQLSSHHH
# [16] = target: T5, Zinc finger protein mex-5 (Caenorhabditis elegans, UniProt Q9XUB2); experiment: potency of MEX-5 RNA-binding blockers – biochemical, C. elegans, fluorescence polarization, dose response (AID 1960)
# T5 sequence (Q9XUB2 whole entry): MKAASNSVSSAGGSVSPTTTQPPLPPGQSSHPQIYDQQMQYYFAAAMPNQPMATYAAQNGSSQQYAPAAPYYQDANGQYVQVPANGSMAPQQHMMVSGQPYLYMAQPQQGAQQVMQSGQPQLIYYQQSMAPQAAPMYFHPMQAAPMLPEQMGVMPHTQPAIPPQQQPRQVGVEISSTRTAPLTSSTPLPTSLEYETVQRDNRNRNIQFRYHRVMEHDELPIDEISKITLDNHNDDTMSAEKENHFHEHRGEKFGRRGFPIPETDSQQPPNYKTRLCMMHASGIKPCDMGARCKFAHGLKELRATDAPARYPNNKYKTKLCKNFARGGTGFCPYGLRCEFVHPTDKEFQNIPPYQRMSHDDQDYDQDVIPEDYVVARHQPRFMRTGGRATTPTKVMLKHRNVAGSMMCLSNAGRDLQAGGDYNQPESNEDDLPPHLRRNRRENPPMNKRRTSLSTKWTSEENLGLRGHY
# [17] = target: 26S proteasome non-ATPase regulatory subunit 14 (Homo sapiens, UniProt O00487); experiment: inhibition of proteasome subunit RPN11 – biochemical, fluorescence polarization, uHTS hits, confirmation (AID 602368); assay type: functional
# [18] = target: 72 kDa type IV collagenase (Homo sapiens, UniProt P08253); experiment: Dose Response validation of uHTS RPN11 inhibitor hits using a MMP-2 Fluorescence assay.; assay type: functional
# Prothrombin = Prothrombin (Bos taurus, UniProt P00735); experiment: thrombin protease inhibitors – biochemical, fluorescence polarization, uHTS hits, dose response (AID 602369); assay type: functional
# Melanocortin receptor 4 = Melanocortin receptor 4 (Homo sapiens, UniProt P32245); assay type: functional, cell-based;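 note: Cell-based assay with luminescence read-out, confirmatory dose-response testing for agonist activity of biased ligands at MC4R; human U2OS cells with tagged receptor and beta-arrestin; potency of agonists that increase receptor coupling to beta-arrestin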
# [19] = target: FAD-linked sulfhydryl oxidase ALR (Homo sapiens, UniProt P55789); experiment: ALR-catalysed DTT oxidation blockers – biochemical, H2O2 detection, luminescence, cherry-pick, dose response (AID 493248)
# Chain of Peroxisome proliferator-activated receptor gamma/Nuclear receptor coactivator 2 (P37231 whole entry): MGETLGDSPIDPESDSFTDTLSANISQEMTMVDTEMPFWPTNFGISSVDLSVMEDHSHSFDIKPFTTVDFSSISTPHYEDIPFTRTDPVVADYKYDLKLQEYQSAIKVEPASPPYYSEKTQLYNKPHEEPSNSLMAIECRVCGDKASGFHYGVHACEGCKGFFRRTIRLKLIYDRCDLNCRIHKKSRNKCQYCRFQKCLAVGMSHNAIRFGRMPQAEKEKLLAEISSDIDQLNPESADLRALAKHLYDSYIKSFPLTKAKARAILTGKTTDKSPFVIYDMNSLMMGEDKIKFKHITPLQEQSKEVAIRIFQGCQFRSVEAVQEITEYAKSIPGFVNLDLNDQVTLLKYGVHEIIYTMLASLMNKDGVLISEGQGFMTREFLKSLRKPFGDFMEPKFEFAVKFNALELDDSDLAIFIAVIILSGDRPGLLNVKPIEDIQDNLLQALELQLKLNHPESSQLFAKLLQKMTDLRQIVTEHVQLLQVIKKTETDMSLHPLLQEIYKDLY
# Chain of Peroxisome proliferator-activated receptor gamma/Nuclear receptor coactivator 2 (Q15596 whole entry, further chain): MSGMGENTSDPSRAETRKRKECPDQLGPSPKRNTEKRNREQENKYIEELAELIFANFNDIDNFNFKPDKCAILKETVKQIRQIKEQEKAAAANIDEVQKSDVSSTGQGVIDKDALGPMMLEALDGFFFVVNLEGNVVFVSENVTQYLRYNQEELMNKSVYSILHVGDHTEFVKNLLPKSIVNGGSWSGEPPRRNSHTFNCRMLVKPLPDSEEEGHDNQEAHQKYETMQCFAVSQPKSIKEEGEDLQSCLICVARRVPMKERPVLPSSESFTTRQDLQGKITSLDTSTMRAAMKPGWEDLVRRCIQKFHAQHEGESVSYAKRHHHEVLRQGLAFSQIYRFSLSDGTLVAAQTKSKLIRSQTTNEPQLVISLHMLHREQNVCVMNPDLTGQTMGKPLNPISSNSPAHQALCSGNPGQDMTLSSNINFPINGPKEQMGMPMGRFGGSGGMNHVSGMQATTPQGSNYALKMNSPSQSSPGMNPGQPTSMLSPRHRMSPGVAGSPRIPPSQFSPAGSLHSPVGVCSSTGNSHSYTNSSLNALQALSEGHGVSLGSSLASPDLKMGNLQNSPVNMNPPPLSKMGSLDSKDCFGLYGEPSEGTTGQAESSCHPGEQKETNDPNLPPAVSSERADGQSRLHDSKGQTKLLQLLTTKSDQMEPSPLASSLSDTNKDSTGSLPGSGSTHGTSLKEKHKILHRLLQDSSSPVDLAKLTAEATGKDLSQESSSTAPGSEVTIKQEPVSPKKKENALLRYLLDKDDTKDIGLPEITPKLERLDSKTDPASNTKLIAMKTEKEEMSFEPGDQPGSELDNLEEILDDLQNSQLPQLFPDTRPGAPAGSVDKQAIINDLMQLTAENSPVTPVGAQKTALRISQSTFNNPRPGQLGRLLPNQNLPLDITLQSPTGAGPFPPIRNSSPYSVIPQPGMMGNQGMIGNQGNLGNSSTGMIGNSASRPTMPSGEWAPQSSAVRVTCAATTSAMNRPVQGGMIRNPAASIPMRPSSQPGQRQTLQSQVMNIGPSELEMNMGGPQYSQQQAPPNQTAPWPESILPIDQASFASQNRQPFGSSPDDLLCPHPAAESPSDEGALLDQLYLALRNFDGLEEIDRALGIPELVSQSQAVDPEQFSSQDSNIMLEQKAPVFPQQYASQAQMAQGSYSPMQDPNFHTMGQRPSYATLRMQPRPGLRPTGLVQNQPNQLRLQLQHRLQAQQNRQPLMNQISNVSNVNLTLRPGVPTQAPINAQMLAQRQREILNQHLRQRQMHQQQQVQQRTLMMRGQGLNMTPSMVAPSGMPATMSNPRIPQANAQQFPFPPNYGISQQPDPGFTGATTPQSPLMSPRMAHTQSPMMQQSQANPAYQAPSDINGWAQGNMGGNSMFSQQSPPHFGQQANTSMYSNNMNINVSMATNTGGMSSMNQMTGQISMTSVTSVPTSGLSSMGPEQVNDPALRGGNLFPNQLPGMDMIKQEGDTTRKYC
# Chain of Peroxisome proliferator-activated receptor gamma/Nuclear receptor coactivator 3 (P37231 whole entry): as the sequence (P37231 whole entry) above
# Chain of Peroxisome proliferator-activated receptor gamma/Nuclear receptor coactivator 3 (Q9Y6Q9 whole entry, further chain): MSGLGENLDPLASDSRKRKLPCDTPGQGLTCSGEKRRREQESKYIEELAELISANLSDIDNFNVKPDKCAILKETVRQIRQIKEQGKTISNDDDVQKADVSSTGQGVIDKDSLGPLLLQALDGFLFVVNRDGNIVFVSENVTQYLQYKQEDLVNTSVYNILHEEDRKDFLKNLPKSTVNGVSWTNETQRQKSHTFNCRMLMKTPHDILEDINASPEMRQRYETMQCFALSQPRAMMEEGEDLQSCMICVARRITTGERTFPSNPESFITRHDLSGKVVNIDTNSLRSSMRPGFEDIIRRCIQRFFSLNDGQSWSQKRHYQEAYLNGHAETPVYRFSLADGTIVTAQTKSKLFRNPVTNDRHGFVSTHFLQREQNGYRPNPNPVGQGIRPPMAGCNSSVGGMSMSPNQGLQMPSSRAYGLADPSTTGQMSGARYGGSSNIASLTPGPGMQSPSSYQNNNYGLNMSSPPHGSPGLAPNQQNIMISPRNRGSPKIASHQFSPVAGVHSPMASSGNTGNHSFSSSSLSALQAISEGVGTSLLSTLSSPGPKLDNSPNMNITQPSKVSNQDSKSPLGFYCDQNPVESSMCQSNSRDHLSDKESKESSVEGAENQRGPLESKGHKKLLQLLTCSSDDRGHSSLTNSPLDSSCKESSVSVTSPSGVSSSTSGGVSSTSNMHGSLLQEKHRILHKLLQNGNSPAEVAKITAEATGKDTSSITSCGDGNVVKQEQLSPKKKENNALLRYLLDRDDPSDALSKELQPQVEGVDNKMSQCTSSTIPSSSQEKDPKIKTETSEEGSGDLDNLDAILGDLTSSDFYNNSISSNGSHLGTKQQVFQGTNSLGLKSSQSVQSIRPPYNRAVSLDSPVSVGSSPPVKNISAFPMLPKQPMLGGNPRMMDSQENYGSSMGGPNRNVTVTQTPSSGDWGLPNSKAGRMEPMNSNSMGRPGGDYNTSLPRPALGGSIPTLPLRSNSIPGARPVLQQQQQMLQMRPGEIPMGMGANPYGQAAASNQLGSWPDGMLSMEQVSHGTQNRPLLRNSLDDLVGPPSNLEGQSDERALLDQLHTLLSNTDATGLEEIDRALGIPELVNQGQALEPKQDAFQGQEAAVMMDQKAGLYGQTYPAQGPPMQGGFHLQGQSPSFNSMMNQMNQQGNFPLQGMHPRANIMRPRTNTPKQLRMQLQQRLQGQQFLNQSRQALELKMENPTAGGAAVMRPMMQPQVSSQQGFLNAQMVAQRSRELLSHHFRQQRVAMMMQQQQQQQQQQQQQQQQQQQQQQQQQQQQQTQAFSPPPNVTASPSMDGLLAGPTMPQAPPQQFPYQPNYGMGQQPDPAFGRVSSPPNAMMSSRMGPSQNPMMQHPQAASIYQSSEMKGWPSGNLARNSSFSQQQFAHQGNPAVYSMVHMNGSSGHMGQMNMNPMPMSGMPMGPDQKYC
# Chain of Melanocortin receptor 4 (P32245 whole entry): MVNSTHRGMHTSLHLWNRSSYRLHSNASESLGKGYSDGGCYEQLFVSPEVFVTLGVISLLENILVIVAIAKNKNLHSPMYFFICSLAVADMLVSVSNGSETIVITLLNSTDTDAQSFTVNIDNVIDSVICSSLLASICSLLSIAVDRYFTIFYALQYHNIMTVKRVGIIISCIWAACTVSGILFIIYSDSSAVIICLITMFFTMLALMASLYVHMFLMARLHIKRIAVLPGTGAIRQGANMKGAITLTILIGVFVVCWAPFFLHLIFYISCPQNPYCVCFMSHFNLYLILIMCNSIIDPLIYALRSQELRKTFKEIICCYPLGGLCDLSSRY
# Chain of 72 kDa type IV collagenase (P08253 whole entry): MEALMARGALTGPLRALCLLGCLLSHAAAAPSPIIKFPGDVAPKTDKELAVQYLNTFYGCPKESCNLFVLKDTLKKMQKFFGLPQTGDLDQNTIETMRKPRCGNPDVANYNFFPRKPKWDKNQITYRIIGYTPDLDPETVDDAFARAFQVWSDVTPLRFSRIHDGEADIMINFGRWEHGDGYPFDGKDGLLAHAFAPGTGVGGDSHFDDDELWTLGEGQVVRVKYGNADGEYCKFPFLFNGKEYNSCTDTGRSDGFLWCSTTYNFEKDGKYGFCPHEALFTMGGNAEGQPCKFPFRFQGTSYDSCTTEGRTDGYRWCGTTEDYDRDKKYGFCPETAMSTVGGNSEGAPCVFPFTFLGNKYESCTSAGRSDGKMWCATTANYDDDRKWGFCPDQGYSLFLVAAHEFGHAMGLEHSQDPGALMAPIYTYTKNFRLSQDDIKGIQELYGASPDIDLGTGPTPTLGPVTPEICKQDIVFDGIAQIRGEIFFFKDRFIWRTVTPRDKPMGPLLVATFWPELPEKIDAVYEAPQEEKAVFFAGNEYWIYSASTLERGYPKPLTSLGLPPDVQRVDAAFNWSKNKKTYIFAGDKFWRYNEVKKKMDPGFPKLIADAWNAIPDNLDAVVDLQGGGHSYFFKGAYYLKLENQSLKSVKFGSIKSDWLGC
# Chain of Phospholipase A2 (P04054 whole entry): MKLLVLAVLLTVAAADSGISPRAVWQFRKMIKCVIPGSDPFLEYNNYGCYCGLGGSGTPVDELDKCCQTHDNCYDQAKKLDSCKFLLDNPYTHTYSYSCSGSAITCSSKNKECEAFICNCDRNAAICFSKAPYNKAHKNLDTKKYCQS
smiles,measurement,setting,value
CC(/C=C1\SC(=S)N(c2ccc(C(=O)O)cc2)C1=O)=C\c1ccccc1,EC50,HEK293 [1],8.26 µM (active)
same,IC50,HEK293 [2],4.09 µM (active)
same,IC50,HEK293 [3],> 20 µM (inactive)
same,IC50,HEK293 [4],5.93 µM (active)
same,IC50,[5],3.09 µM (active)
same,IC50,Cysteine protease ATG4B,5.25 µM (active)
same,IC50,Phospholipase A2,1.88 µM (active)
same,IC50,Genome polyprotein,33.7 µM (active)
Cn1c(S)nnc1-c1sc2cc(C(F)(F)F)cnc2c1-c1cccs1,EC50,[6],6.65 µM (active)
same,EC50,[7],34 µM (not active)
same,EC50,[8],12.6 µM (not active)
C[N+](C)(CCOc1ccccc1)Cc1ccccc1.O=C([O-])c1cc2ccccc2c(Br)c1O,AC50,[9],0.517 µM (active)
COC(=O)C1=C(C(=O)OC)C(c2cc(Br)ccc2O)c2sc(O)nc2S1 (stereo unspecified),IC50,Genome polyprotein,81.6 µM (active)
same,AC50,[9],24.6 µM (active)
same,IC50,[10],> 66 µM (inactive)
same,IC50,[11],> 66 µM (inactive)
COc1ccc(C(C(=O)NC2CCCCC2)N(C(=O)c2sc(C)nc2C)c2ccc(OC)cc2)cc1 (stereo unspecified),IC50,[12],8.51 µM (active)
same,EC50,[13],> 53 µM (inactive)
same,IC50,[14],> 20 µM (inactive)
same,AC50,Cytochrome P450 2C9,17.8 µM (inconclusive)
CN(CCCNC(=O)CSc1cc(=O)n(C)c2ccc(Cl)cc12)Cc1ccccc1,EC50,[6],> 79.4 µM (inactive)
same,EC50,[7],> 79.4 µM (not active)
same,EC50,[8],> 79.4 µM (not active)
CC(=O)Nc1cccc(NC(=O)c2cc3ccccc3o2)c1,AC50,[9],11.5 µM (active)
Cc1ccc(C)c(NC(=O)CCN2CCc3ccccc3C2)c1,AC50,Escherichia coli,58.7 µM (active)
N#Cc1c(-c2ccccc2)cc(C2CC2)nc1SCC(=O)c1cccs1,EC50,[6],7.51 µM (active)
same,EC50,[7],20.6 µM (not active)
same,EC50,[8],7.18 µM (active)
same,AC50,Cytochrome P450 3A4,14.1 µM (inconclusive)
same,AC50,Cytochrome P450 2C9,0.0447 µM (inconclusive)
COc1ccccc1N1C(=O)S/C(=C\c2ccc(C)s2)C1=O,EC50,[15],> 300 µM (not active)
same,EC50,[16],10.1 µM (inconclusive)
same,IC50,[17],23.5 µM (active)
same,IC50,[18],> 100 µM (inactive)
same,IC50,Prothrombin,36.3 µM (active)
O=C(CCN1C(=O)NC2(CCCC2)C1=O)Nc1ccc(-c2nc3ccccc3s2)cc1,IC50,[17],19.3 µM (active)
same,IC50,[18],> 100 µM (inactive)
same,IC50,Prothrombin,19.5 µM (active)
Cc1ccccc1S(=O)(=O)Nc1nc2ccccc2nc1N1CCc2ccccc2C1,IC50,Cysteine protease ATG4B,29.9 µM (inactive)
same,IC50,Phospholipase A2,16.8 µM (active)
COc1ccc(/C=C/C(=O)OCc2cc(=O)n3c(n2)sc2ccccc23)cc1,AC50,Escherichia coli,> 150 µM (inactive)
CCOc1ccc(NC(=O)CSc2nc(-c3cccs3)cc(C(F)(F)F)n2)c([N+](=O)[O-])c1,EC50,Melanocortin receptor 4,> 89.2 µM (inactive)
O=C(NCc1ccccc1)c1[nH]cnc1C(=O)N1CCN(c2ccccc2)CC1,AC50,[19],6.21 µM (active)
same,AC50,Escherichia coli,38.8 µM (active)
Cc1cc(C)c(CN2CCN(CCCn3cnc(C(=O)Nc4ccc(C)c(C)c4)n3)CC2)c(C)c1,EC50,Melanocortin receptor 4,> 89.2 µM (inactive)
O=C(NC(c1ccc(Cl)cc1)c1cccnc1)C1CCN(CCOc2ccc(Cl)cc2Cl)CC1 (stereo unspecified),EC50,Melanocortin receptor 4,> 89.2 µM (inactive)
Cc1ccc(C(=O)N2CC2C)cc1 (stereo unspecified),AC50,Escherichia coli,25.4 µM (active)
CCc1nc(/C=C2\C(=O)Nc3ccccc32)c[nH]1,AC50,[9],10.5 µM (active)
Cc1ccc(OC(=O)N(C)C[C@@H]2OCc3cnnn3CCCC(=O)N([C@@H](C)CO)C[C@@H]2C)cc1,IC50,[12],< 0.368 µM (active)
same,EC50,[13],> 53 µM (inactive)
same,IC50,[14],> 20 µM (inactive)
